No end group written: not given here.
Key:
fecal chymotrypsin level = assay: Fecal Chymotrypsin Test after secretin infusion, 16 autistic children (Experiment 1); type: in vivo; details: each of 16 autistic children; approximately one week after first secretin infusion, 1 U/kg IV; compared with pre-secretin levels
Method: (§1) In this experiment, 16 children diagnosed as having autism were administered the following Fecal Chymotrypsin Test in accordance with an embodiment of the invention. First, approximately 2 grams of stool were collected from each child and placed in a sterile container (although it is to be understood that any quantity of stool may be collected, as 2 grams of stool is not a required amount). Each stool sample was then analyzed using, e.g., an enzymatic photospectrometry analysis as is known by those skilled in the art, to determine the level of fecal chymotrypsin in the stool. Although the enzymatic photospectrophotometry process is preferred, any suitable conventional method may be used for measuring the fecal chymotrypsin levels. The measured chymotrypsin levels of the 16 autistic children are illustrated in FIG. 13.
After determining the chymotrypsin levels of the stools, each of these levels were compared with threshold chymotrypsin levels to determine if the child was likely to benefit from secretin administration. By way of example, with the fecal chymotrypsin tests of the stool samples being performed at 30° C., normal levels of chymotrypsin are deemed to lie above 8.4 U/gram, whereas pathologically abnormal levels are deemed to lie below 4.2 U/gram. […]

[1] = tested on: children diagnosed with Autism; details: secretin given as diagnostic procedure during upper gastrointestinal endoscopy; cited from earlier work
[2] = tested on: fecal chymotrypsin (FC) levels; assay: Weekly fecal chymotrypsin test during 6 months of secretin, 37 autistic children (Experiment 2); type: in vivo; details: 6 months post-secretin administration; of 37 children, all abnormal pre-secretin
Method: as §1
After determining the chymotrypsin levels of the stools, each of these levels were compared with threshold chymotrypsin levels to determine if the child was likely to benefit from secretin administration. By way of example, with the fecal chymotrypsin tests of the stool samples being performed at 30° C., normal levels of chymotrypsin are deemed to lie above 8.4 U/gram, whereas pathologically abnormal levels are deemed to lie below 4.2 U/gram. In addition, chymotrypsin levels between 8.4 U/gram and 4.2 U/gram are considered equivocal, and further testing of the individual's fecal chymotrypsin levels over a period of time should be performed.
A preferred secretin infusion process includes the initial step of prepping an arm of the candidate child with an IV injection of saline. A test dose of 1 U of Secretin-Ferring is then administered to the child. […]
In this experiment, 37 autistic children with abnormal fecal chymotrypsin levels were administered secretin over the course of 6 months using the secretin infusion process described above. Their fecal chymotrypsin (FC) levels were measured weekly using the fecal chymotrypsin test described above.

[3] = tested on: children diagnosed as having autism; assay: CARS (Childhood Autism Rating Scale) test pre- and post-secretin (Experiment 1); type: in vivo; details: 16 autistic children
Method: Upon determining that a given child was likely to benefit from secretin administration based on the results of the fecal chymotrypsin test, the child was administered a CARS (Childhood Autism Rating Scale) test prior to being scheduled for secretin infusion.
For each of the 16 autistic children tested, a preferred secretin infusion process according to the present invention was performed involving the administering of 1 U/kg of body weight of Secretin-Ferring for a period of nine months at intervals of approximately 6 weeks. In addition, another CARS test was administered to each of the 16 autistic children 3 weeks post secretin administration to determine if their autism had changed post infusion.
A preferred secretin infusion process includes the initial step of prepping an arm of the candidate child with an IV injection of saline. A test dose of 1 U of Secretin-Ferring is then administered to the child. Approximately one minute after infusion, the child is examined for signs of allergic reaction including rash, increased heart rate, and increase of blood pressure. […] Subsequently, each child receives a 1 U/kg of body weight infusion of Secretin-Ferring approximately every 6 weeks for 9 months. It is to be understood that any commercially available form of secretin may be used.

**Q.** For “secretin (HSDGTFTSELSRLRDSARLQRLLQGLV-NH2; ends and bridges not checked; UniProt P63298 33-59, looked up) [gastrointestinal peptide hormone]”, which “fecal chymotrypsin level post-secretin administration” value (fecal chymotrypsin level) is on record?
**A.** increased

**Q.** And the “symptoms associated with Autism” value [1]?
**A.** ameliorating the symptoms associated with Autism

**Q.** And the “# Autistic Children w/Abnormal FC levels” value [2]?
**A.** 1

**Q.** What about the “# Autistic Children w/Equivocal FC levels” value [2] of the same substance?
**A.** 2

**Q.** What about the “# Autistic Children w/normal FC levels” value [2] of the same substance?
**A.** 34

**Q.** And the “CARS component scores (all except fear)” value ([3]; 3 weeks post infusion)?
**A.** demonstrated improvement

**Q.** And the “CARS fear component score” value ([3]; 3 weeks post infusion)?
**A.** increased

**Q.** What about the “CARS scores (overall)” value ([3]; approximately 3 weeks after first secretin administration vs pre-secretin) of the same substance?
**A.** overall decrease

— patent US6534063B1, “Methods for treating pervasive development disorders” (priority 1999, dated 2003)
